Measurements reported in patent US20220380334A1, “(-) - CIS TETRAHYDROCANNABINOL ((-) - CIS-THC) FOR USE AS A MEDICAMENT” (GW Research Limited, priority 2019, published 2022).
“Also recorded” adds a separate entry of the source. Marks after values point to notes of the source that are not given here.

How the values were obtained:
[1] = tested on: withdrawal threshold on hot plate at 52° C.; assay: Mouse hotplate test of anti-nociceptive potential; type: in vivo; conditions: for Withdrawal threshold (sec) Mean +/− SEM: hot plate 52° C.
Protocol: Mice underwent a minimum habituation period of 7 days prior to study commencement. Naïve mice were acclimatised to the procedure room in their home cages, with food and water available ad libitum.
Animals were treated with either treatment vehicle, (−)-cis-THC at 1, 15, 50, 100, 125 and 150 mg/kg at 10 ml/kg i.p. or Morphine 10 mg/kg or Morphine vehicle (Saline) at 10 ml/kg i.p.
Animals were placed onto a hot plate set at 52° C. and time to withdrawal threshold (first response of lifting, licking front or hind paws or trying to escape) was taken at 1-hour post treatment, or at 0.5 hour after the positive control.
Animals were culled by a schedule 1 method, immediately after the measurement.
Data were analysed by comparing withdrawal thresholds back to Vehicle treated group

[2] = tested on: tonic hind limb convulsions; assay: Mouse supramaximal electroshock seizure (MES) model of generalized seizures; type: in vivo
Protocol: Mice were administered MES (30 mA, rectangular current: 0.6 ms pulse width, 0.2 s duration, 50 Hz) via corneal electrodes connected to a constant current shock generator (Ugo Basile: type 7801) to reliably produce tonic hind limb convulsions. The number of tonic convulsions was recorded.
Sixteen mice were studied per group. The test was performed blind.
The test substance, (−)-cis-THC, was evaluated at 4 doses (10, 50, 100 and 150 mg/kg), administered i.p. 60 minutes before MES, and compared with a vehicle control group (administered under the same experimental conditions).
Valproate (positive control) was administered at 250 mg/kg i.p. 30 minutes before MES, was used as a reference substance and was compared with a vehicle group (administered i.p. 60 minutes before MES).
Data was analysed by comparing treated groups with the appropriate vehicle control using 2-tailed Fisher's Exact Probability tests (p<0.05 considered significant).

[3] = depending on the assay; cited from earlier work

Structure (SMILES): CCCCCc1cc(O)c2c(c1)OC(C)(C)[C@H]1CCC(C)=C[C@@H]21 (relative stereo) [(−)-cis-THC, (−)-cis-delta-9-tetrahydrocannabinol]
- Withdrawal threshold (sec) Mean +/− SEM ([1]; 1 mg/kg I.P., 1-hour post treatment): 10.99 ± 0.92 s
- Withdrawal threshold (sec) Mean +/− SEM ([1]; 15 mg/kg I.P., 1-hour post treatment): 10.22 ± 0.94 s
- Withdrawal threshold (sec) Mean +/− SEM ([1]; 50 mg/kg I.P., 1-hour post treatment): 12.68 ± 1.11 s
- Withdrawal threshold (sec) Mean +/− SEM ([1]; 100 mg/kg I.P., 1-hour post treatment): 14.23 ± 1.37 s
- Withdrawal threshold (sec) Mean +/− SEM ([1]; 125 mg/kg I.P., 1-hour post treatment): 15.28 ± 1.19 s
- anti-nociceptive effect in the hotplate test (overall, in words) ([1]; 1 to 150 mg/kg i.p.): dose-related increase in withdrawal threshold; also recorded: significant anti-nociceptive effect
- % change from vehicle in number of tonic clonic seizures after MES ([2]; 10 mg/kg I.P., pre-treatment time 60 mins): No effect
- % change from vehicle in number of tonic clonic seizures after MES ([2]; 10 mg/kg I.P., pre-treatment time 60 mins, listed as (-)-cis-THC): 0.0%
- % change from vehicle in number of tonic clonic seizures after MES ([2]; 50 mg/kg I.P., pre-treatment time 60 mins): 25%
- % change from vehicle in number of tonic clonic seizures after MES ([2]; 50 mg/kg I.P., pre-treatment time 60 mins, listed as (-)-cis-THC): 25.0%
- % change from vehicle in number of tonic clonic seizures after MES ([2]; 100 mg/kg I.P., pre-treatment time 60 mins): 6.3%
- % change from vehicle in number of tonic clonic seizures after MES ([2]; 150 mg/kg I.P., pre-treatment time 60 mins): 25%
- % change from vehicle in number of tonic clonic seizures after MES ([2]; 150 mg/kg I.P., pre-treatment time 60 mins, listed as (-)-cis-THC): 25.0%
- anti-convulsant effect in the MES model (overall conclusion) ([2]; 10, 50, 100 and 150 mg/kg i.p.): did not produce a significant anti-convulsant effect

Structure (SMILES): CCCCCc1cc(O)c2c(c1)OC(C)(C)[C@@H]1CCC(C)=C[C@@H]21 [(−)-trans-THC, (−)-trans-delta-9-tetrahydrocannabinol]
- potency relative to the (+)-trans-THC isomer [3]: 6-100 times

Structure (SMILES): CN1CC[C@]23c4c5ccc(O)c4O[C@H]2[C@@H](O)C=C[C@H]3[C@H]1C5 [Morphine, reference compound]
- Withdrawal threshold (sec) Mean +/− SEM ([1]; 10 mg/kg I.P., 0.5 hour after treatment): 23.17 +/− 1.54 *** sec
- Withdrawal threshold (sec) Mean +/− SEM ([1]; 10 mg/kg I.P., 0.5 hour after treatment, listed as morphine): significant increase

Structure (SMILES): CCCC(CCC)C(=O)O [Valproate, reference compound]
- % change from vehicle in number of tonic clonic seizures after MES ([2]; 250 mg/kg I.P., pre-treatment time 30 mins): 93.8%
